Test results: article PMC6857051, “Proliferative regulation of alveolar epithelial type 2 progenitor cells by human Scnn1d gene” (Theranostics, 2019)

Molecular target: T1, δ802αβγ-ENaC (Homo sapiens, UniProt P51168+P51170)
T1 construct: We characterized full-length human δ802-ENaC expressed in both Xenopus oocytes and humanized transgenic mice; expressed in transfected cells; host or cells: Xenopus laevis oocytes injected with cRNA (pGEM HE vector)
T1 sequence (P51168 1-640): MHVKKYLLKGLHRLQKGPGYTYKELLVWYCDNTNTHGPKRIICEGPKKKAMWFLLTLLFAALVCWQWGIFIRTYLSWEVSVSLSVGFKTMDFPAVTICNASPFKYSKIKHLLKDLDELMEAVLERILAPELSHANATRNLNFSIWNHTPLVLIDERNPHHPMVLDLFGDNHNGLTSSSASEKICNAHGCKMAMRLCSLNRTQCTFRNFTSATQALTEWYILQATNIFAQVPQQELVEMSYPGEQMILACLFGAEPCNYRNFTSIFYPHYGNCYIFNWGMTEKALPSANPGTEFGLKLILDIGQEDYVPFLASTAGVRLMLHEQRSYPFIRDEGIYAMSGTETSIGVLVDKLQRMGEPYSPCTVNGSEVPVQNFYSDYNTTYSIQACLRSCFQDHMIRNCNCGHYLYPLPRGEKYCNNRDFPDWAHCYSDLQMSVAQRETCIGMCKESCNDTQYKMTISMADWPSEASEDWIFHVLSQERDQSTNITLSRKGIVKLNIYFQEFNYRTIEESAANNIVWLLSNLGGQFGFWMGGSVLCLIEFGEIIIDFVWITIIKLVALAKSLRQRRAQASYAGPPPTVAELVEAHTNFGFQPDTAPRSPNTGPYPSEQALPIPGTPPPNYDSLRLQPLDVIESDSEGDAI
T1 sequence (P51170 1-649): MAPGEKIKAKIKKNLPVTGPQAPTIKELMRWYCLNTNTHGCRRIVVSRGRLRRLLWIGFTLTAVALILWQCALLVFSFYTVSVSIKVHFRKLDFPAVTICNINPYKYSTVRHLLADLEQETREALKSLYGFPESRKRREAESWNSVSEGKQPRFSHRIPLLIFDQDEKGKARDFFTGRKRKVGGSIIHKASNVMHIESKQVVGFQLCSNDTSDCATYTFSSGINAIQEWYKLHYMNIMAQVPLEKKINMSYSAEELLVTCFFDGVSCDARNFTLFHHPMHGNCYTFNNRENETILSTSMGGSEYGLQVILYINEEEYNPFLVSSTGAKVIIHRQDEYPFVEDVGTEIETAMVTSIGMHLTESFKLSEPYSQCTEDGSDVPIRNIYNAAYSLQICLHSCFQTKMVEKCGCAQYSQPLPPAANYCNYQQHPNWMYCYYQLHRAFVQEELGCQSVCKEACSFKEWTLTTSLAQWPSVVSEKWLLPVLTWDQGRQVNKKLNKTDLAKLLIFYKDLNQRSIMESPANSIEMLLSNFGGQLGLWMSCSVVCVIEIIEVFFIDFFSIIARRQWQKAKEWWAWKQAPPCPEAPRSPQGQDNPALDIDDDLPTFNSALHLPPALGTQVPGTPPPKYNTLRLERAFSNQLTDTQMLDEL
Assay: Two-electrode voltage clamp of δ802αβγ-ENaC expressed in Xenopus oocytes
Format: cell-based
Method: Cloning, in vitro transcription, and heterologous expression of δ802 ENaC and two-electrode voltage clamping assay. δ802 and other ENaC subunits were generated in human ENaC cDNAs cloned into a pGEM HE vector [4], [76]. cRNAs of human α, β, and γ ENaC were prepared as described previously. The stoichiometry of native ENaC complexes is unclear to date. Based on the studies in the last decade, several models have been proposed for αβγ ENaC channels: 1α1β1γ, 2α1β1γ, 3α3β3γ. Based on the EM structure of human αβγ ENaC [35], the currently acceptable model of human αβγ ENaC complexes is heterotrimeric (1α1β1γ). Thus we microinjected δ802:β:γ in a 1:1:1 subunit ratio. Oocytes were surgically removed from appropriately anesthetized adult female Xenopus laevis (Xenopus Express). Briefly, the ovarian tissue was removed from the frog under anesthesia by tricaine-S (Western Chemicals) through a small incision in the lower abdomen. Ovarian lobes were removed and digested in OR-2 calcium-free medium (in mM: 82.5 NaCl, 2.5 KCl, 1.0 MgCl2, 1.0 Na2HPO4, and 10.0 HEPES, pH 7.5) with the addition of 2 mg/ml collagenase (Roche, Indianapolis). Defolliculated oocytes were injected with ENaC cRNAs into the cytosol (25 ng per oocyte in 50 nl of RNase-free water) and incubated in regular OR-2 medium at 18°C. The two-electrode voltage-clamp technique was used to record whole-cell currents 48 h post injection. Oocytes were impaled with two electrodes filled with 3M KCl, having resistance of 0.5 - 2 MΩ. A TEV-200A voltage-clamp amplifier (Dagan) was used to clamp oocytes with concomitant recording of currents. Two reference electrodes were connected to the bath. The continuously perfused bathing solution was ND-96 medium (in mM: 96.0 NaCl, 1.0 MgCl2, 1.8 CaCl2, 2.5 KCl, and 5.0 HEPES, pH 7.5). Whole-cell currents were recorded as previously reported. Experiments were controlled by pCLAMP 10.7 software (Molecular Devices), and currents at -40 mV, -100 mV, and +80 mV were continuously monitored with data recorded at intervals of 10 sec. Data were sampled at the rate of 200 Hz and filtered at 50 Hz.

N=C(N)NC(=O)c1nc(Cl)c(N)nc1N [amiloride]
inhibition of the α-13 peptide-resistant remaining fraction of current amplitude (amiloride 10 μM after α-13 300 μM, δαβγ-ENaC, -100 mV): approximately 80%

Ac-LRGTLPHPLQRLR-NH2 [α-13 peptide]
fraction of total δαβγ-ENaC activity suppressed (α-13 300 μM, -100 mV, n=5, Figure 2B): Approximately half

B1: plasmin: serine protease of the plasmin(ogen) signal pathway for fibrinolysis (protein, UniProt P00747 20-580; P00747 581-810, looked up)
Plasmin heavy chain A: EPLDDYVNTQGASLFSVTKKQLGAGSIEECAAKCEEDEEFTCRAFQYHSKEQQCVIMAENRKSSIIIRMRDVVLFEKKVYLSECKTGNGKNYRGTMSKTKNGITCQKWSSTSPHRPRFSPATHPSEGLEENYCRNPDNDPQGPWCYTTDPEKRYDYCDILECEEECMHCSGENYDGKISKTMSGLECQAWDSQSPHAHGYIPSKFPNKNLKKNYCRNPDRELRPWCFTTDPNKRWELCDIPRCTTPPPSSGPTYQCLKGTGENYRGNVAVTVSGHTCQHWSAQTPHTHNRTPENFPCKNLDENYCRNPDGKRAPWCHTTNSQVRWEYCKIPSCDSSPVSTEQLAPTAPPELTPVVQDCYHGDGQSYRGTSSTTTTGKKCQSWSSMTPHRHQKTPENYPNAGLTMNYCRNPDADKGPWCFTTDPSVRWEYCNLKKCSGTEASVVAPPPVVLLPDVETPSEEDCMFGNGKGYRGKRATTVTGTPCQDWAAQEPHRHSIFTPETNPRAGLEKNYCRNPDGDVGGPWCYTTNPRKLYDYCDVPQCAAPSFDCGKPQVEPKKCPGR
Plasmin light chain B: VVGGCVAHPHSWPWQVSLRTRFGMHFCGGTLISPEWVLTAAHCLEKSPRPSSYKVILGAHQEVNLEPHVQEIEVSRLFLEPTRKDIALLKLSSPAVITDKVIPACLPSPNYVVADRTECFITGWGETQGTFGAGLLKEAQLPVIENKVCNRYEFLNGRVQSTELCAGHLAGGTDSCQGDSGGPLVCFEKDKYILQGVTSWGLGCARPNKPGVYVRVSRFVTWIEGVMRNN
modifications: Plasmin
notes: serine protease of the plasmin(ogen) signal pathway for fibrinolysis
effect of pre-treatment on δ802αβγ-ENaC activity (oocytes pre-treated, currents at -100 mV, n=5, Figure 3D): potentiated
